Measurements from the Kinase Knowledgebase extract (Sharma et al. 2016).

Key:
[1] = target: CDK2 (human) (UniProt P24941); test: Enzyme Assay
[2] = target: EGFR (human) (UniProt P00533)
Sequence of EGFR (human) (P00533 whole entry, looked up): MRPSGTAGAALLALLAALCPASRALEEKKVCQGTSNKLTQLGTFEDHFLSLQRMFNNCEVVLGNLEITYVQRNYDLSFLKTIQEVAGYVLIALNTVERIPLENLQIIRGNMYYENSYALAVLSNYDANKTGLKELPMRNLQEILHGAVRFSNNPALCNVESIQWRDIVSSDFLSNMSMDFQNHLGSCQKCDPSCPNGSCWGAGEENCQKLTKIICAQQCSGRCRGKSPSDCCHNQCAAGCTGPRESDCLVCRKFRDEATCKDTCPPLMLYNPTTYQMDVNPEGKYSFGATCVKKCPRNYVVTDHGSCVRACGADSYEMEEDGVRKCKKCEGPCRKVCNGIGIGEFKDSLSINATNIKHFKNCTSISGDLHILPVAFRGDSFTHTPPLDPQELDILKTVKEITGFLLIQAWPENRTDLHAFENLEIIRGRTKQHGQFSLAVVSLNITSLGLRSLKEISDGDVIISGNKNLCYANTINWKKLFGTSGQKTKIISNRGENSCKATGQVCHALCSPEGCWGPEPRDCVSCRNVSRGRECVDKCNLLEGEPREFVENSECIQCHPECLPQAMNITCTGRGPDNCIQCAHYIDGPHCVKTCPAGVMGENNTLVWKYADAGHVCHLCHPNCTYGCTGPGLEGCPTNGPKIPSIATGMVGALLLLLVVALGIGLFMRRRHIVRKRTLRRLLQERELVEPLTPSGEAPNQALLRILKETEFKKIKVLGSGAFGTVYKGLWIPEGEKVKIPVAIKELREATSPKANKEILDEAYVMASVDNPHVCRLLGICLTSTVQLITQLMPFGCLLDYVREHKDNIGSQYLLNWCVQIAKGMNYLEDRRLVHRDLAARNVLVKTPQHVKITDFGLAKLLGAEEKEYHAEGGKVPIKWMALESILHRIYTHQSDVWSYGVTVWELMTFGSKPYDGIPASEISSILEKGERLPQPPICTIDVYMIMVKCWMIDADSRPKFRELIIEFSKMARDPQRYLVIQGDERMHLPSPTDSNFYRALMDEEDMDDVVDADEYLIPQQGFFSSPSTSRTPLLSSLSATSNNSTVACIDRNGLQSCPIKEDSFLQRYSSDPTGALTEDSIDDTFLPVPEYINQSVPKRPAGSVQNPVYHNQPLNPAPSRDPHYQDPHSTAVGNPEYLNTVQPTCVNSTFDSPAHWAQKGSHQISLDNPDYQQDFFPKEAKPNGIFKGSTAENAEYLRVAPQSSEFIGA

Row | SMILES | IC50 [1] [nM] | IC50 [2] [nM]
1 | CC(C)(C)c1cnc(CSc2cnc(NC(=O)Cc3ccc(OCCCC(=O)NO)cc3)s2)o1 | ≤ 100 | –
2 | C#Cc1cccc(Nc2ncnc3cc(OC)c(NC(=O)CCCCCCC(=O)NO)cc23)c1 | – | ≤ 100
3 | CC(C)(C)c1cnc(CSc2cnc(NC(=O)CCCCCC(=O)NO)s2)o1 | ≤ 100 | –
4 | C[C@@H](Nc1ncnc2[nH]c(-c3ccc(NC(=O)CCNCCCCCCC(=O)NO)cc3)cc12)c1ccccc1 | – | ≤ 100
5 | CC(C)(C)c1cnc(CSc2cnc(NC(=O)Cc3ccc(OCCCCC(=O)NO)cc3)s2)o1 | ≤ 100 | –
6 | C#Cc1cccc(Nc2ncnc3cc(OC)c(OCC(=O)NO)cc23)c1 | – | ≤ 100
7 | C#Cc1cccc(Nc2ncnc3cc(OC)c(NC(=O)CCCCC(=O)NO)cc23)c1 | – | ≤ 100
8 | CC(C)(C)c1cnc(CSc2cnc(NC(=O)CCCC(=O)NO)s2)o1 | ≤ 100 | –
9 | COc1cc2ncnc(Nc3ccc(F)c(Cl)c3)c2cc1OCCOc1ccc(C(=O)NO)cc1 | – | ≤ 100
10 | C#Cc1cccc(Nc2ncnc3cc(OCCOC)c(OCCCCCCC(=O)NO)cc23)c1 | – | ≤ 100
11 | CC(C)(C)c1cnc(CSc2cnc(NC(=O)CCCCCCC(=O)NO)s2)o1 | ≤ 100 | –
12 | COc1cc2ncnc(Nc3ccc(F)c(Cl)c3)c2cc1OCCCCC(=O)NO | – | ≤ 100
13 | C#Cc1cccc(Nc2ncnc3cc(OC)c(OCCC(=O)NO)cc23)c1 | – | ≤ 100
14 | COc1cc2ncnc(Nc3ccc(F)c(Cl)c3)c2cc1OCCC(=O)NO | – | ≤ 100
15 | COc1cc2ncnc(Nc3ccc(F)c(Cl)c3)c2cc1OCC(=O)NO | – | ≤ 100
16 | C[C@@H](Nc1ncnc2[nH]c(-c3ccc(NC(=O)CCNCCCCCC(=O)NO)cc3)cc12)c1ccccc1 | – | ≤ 100
17 | C#Cc1cccc(Nc2ncnc3cc(OC)c(OCCCC(=O)NO)cc23)c1 | – | ≤ 100
18 | C#Cc1cccc(Nc2ncnc3ccc(OCC(=O)NO)cc23)c1 | – | ≤ 100
19 | COc1cc2ncnc(Nc3ccc(F)c(Cl)c3)c2cc1SCCCCC(=O)NO | – | ≤ 100
20 | C#Cc1cccc(Nc2ncnc3cc(OC)c(NC(=O)CCCC(=O)NO)cc23)c1 | – | ≤ 100
21 | CC(C)(C)c1cnc(CSc2cnc(NC(=O)CCCCC(=O)NO)s2)o1 | ≤ 100 | –

Now from value to molecule:

Row | IC50 [1] [nM] | IC50 [2] [nM] | SMILES
22 | – | ≤ 100 | O=C(CCOc1ccc2ncnc(Nc3ccc(F)c(Cl)c3)c2c1)NO
23 | – | ≤ 100 | COc1cc2ncnc(Nc3ccc(F)c(Cl)c3)c2cc1OCCCCCC(=O)NO
24 | – | ≤ 100 | O=C(COc1ccc2ncnc(Nc3ccc(F)c(Cl)c3)c2c1)NO
25 | – | ≤ 100 | COc1cc2ncnc(Nc3ccc(F)c(Cl)c3)c2cc1CCCCCC(=O)NO
26 | – | ≤ 100 | O=C(CCCCCCOc1ccc2ncnc(Nc3ccc(F)c(Cl)c3)c2c1)NO
27 | – | ≤ 100 | O=C(CCCCCNCc1ccc(-c2ccc3ncnc(Nc4ccc(OCc5cccc(F)c5)c(Cl)c4)c3c2)o1)NO
28 | – | ≤ 100 | C#Cc1cccc(Nc2ncnc3cc(OCCCCCCC(=O)NO)c(OC)cc23)c1
29 | – | ≤ 100 | O=C(CCCCOc1ccc2ncnc(Nc3ccc(F)c(Cl)c3)c2c1)NO
30 | – | ≤ 100 | C#Cc1cc(Nc2ncnc3cc(OC)c(OCCCCCCC(=O)NO)cc23)ccc1O
31 | – | ≤ 100 | C#Cc1cccc(Nc2ncnc3cc(OCCCCCCC(=O)NO)c(OCCOC)cc23)c1
32 | – | ≤ 100 | COCCOc1cc2c(Nc3ccc(F)c(Cl)c3)ncnc2cc1OCCCCCCC(=O)NO
33 | – | ≤ 100 | O=C(CCCCCOc1ccc2ncnc(Nc3ccc(F)c(Cl)c3)c2c1)NO
34 | – | ≤ 100 | COCCOc1cc2ncnc(Nc3ccc(F)c(Cl)c3)c2cc1NC(=O)CCCC(=O)NO
35 | – | ≤ 100 | COCCOc1cc2ncnc(Nc3ccc(F)c(Cl)c3)c2cc1OCCCCCCC(=O)NO
36 | – | ≤ 100 | COc1cc2ncnc(Nc3ccc(F)c(Cl)c3)c2cc1SCCCCCCC(=O)NO
37 | – | ≤ 100 | COc1cc2ncnc(Nc3ccc(F)c(Cl)c3)c2cc1OCCCC(=O)NO
38 | – | ≤ 100 | COc1cc2ncnc(Nc3ccc(OCc4cccc(F)c4)c(Cl)c3)c2cc1OCCCCCCC(=O)NO
39 | – | ≤ 100 | O=C(CCCCCCOc1ccc2ncnc(Nc3ccc(OCc4cccc(F)c4)c(Cl)c3)c2c1)NO
40 | – | ≤ 100 | C#Cc1cccc(Nc2ncnc3ccc(OCCCCC(=O)NO)cc23)c1
41 | – | ≤ 100 | COc1cc2ncnc(Nc3ccc(F)c(Cl)c3)c2cc1NC(=O)CCCC(=O)NO
42 | – | ≤ 100 | COCCOc1cc2ncnc(Nc3ccc(F)c(Cl)c3)c2cc1NC(=O)CCCCC(=O)NO
43 | – | ≤ 100 | COc1cc2ncnc(Nc3ccc(F)c(Cl)c3)c2cc1NC(=O)CCCCCCC(=O)NO
44 | – | ≤ 100 | COCCOc1cc2ncnc(Nc3ccc(F)c(Cl)c3)c2cc1NC(=O)CCCCCCC(=O)NO
45 | – | ≤ 100 | C#Cc1cccc(Nc2ncnc3cc(OC)c(OCCCCCC(=O)NO)cc23)c1
